Test results: PubChem BioAssay AID256 (DTP/NCI, 2004)
“And” between values parts separate entries of the source, which are not always exact repeats. Equal values may be shown once. Inconclusive results and toxic doses are left out.

System: CD2F1 mice, L1210 leukemia ip, survival T/C
Assay: NCI In Vivo Anticancer Drug Screen. Data for tumor model L1210 Leukemia (intraperitoneal) in CD2F1 (CDF1) mice
Conditions: higher = longer survival
Procedure, shortened: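 Compound-dosed mice with transplantable tumor versus matched vehicle controls; endpoint ratio T/C reported.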

[1] = endpoint: mean survival time, dose: 400.0 mg/kg/injection, schedule: Q04DX003 (ip), vehicle: saline with Tween-80
[2] = endpoint: mean survival time, dose: 100.0 mg/kg/injection, schedule: Q04DX003 (ip), vehicle: saline with Tween-80
[3] = endpoint: mean survival time, dose: 200.0 mg/kg/injection, schedule: Q04DX003 (ip), vehicle: saline with Tween-80

NC(=S)N/N=C/c1ccc(OC(=O)COc2ccc(Cl)cc2)cn1
T/C (endpoint: mean survival time, dose: 88.0 mg/kg/injection, schedule: Q01DX009 (ip), vehicle: saline with Tween-80): 173 % of control
T/C (endpoint: mean survival time, dose: 100.0 mg/kg/injection, schedule: Q04DX002 (ip), vehicle: saline with Tween-80): 103 % of control and 111 % of control
T/C (endpoint: mean survival time, dose: 118.0 mg/kg/injection, schedule: Q01DX001 (ip), vehicle: saline with Tween-80): 109 % of control
T/C (endpoint: mean survival time, dose: 118.0 mg/kg/injection, schedule: Q04DX003 (ip), vehicle: saline with Tween-80): 150 % of control
T/C (endpoint: mean survival time, dose: 132.0 mg/kg/injection, schedule: Q01DX009 (ip), vehicle: saline with Tween-80): 214 % of control
T/C (endpoint: mean survival time, dose: 178.0 mg/kg/injection, schedule: Q01DX001 (ip), vehicle: saline with Tween-80): 118 % of control
T/C (endpoint: mean survival time, dose: 178.0 mg/kg/injection, schedule: Q04DX003 (ip), vehicle: saline with Tween-80): 166 % of control
T/C (endpoint: mean survival time, dose: 200.0 mg/kg/injection, schedule: Q04DX002 (ip), vehicle: saline with Tween-80): 114 % of control
T/C (endpoint: mean survival time, dose: 266.0 mg/kg/injection, schedule: Q01DX001 (ip), vehicle: saline with Tween-80): 123 % of control
T/C (endpoint: mean survival time, dose: 266.0 mg/kg/injection, schedule: Q04DX003 (ip), vehicle: saline with Tween-80): 170 % of control
T/C (endpoint: mean survival time, dose: 300.0 mg/kg/injection, schedule: Q01DX009 (ip), vehicle: saline with Tween-80): 93 % of control
T/C [1]: 181 % of control
T/C (endpoint: mean survival time, dose: 600.0 mg/kg/injection, schedule: Q04DX003 (ip), vehicle: saline with Tween-80): 150 % of control
T/C (endpoint: median survival time, dose: 25.0 mg/kg/injection, schedule: Q01DX009 (ip), vehicle: saline with Tween-80): 164 % of control
T/C (endpoint: median survival time, dose: 50.0 mg/kg/injection, schedule: Q01DX009 (ip), vehicle: saline with Tween-80): 188 % of control
T/C (endpoint: median survival time, dose: 50.0 mg/kg/injection, schedule: Q01DX009 (ip), vehicle: saline): 172 % of control
T/C (endpoint: median survival time, dose: 88.0 mg/kg/injection, schedule: Q01DX009 (ip), vehicle: saline with Tween-80): 178 % of control
T/C (endpoint: median survival time, dose: 100.0 mg/kg/injection, schedule: Q01DX009 (ip), vehicle: saline with Tween-80): 175 % of control and 180 % of control
T/C (endpoint: median survival time, dose: 100.0 mg/kg/injection, schedule: Q01DX009 (ip), vehicle: saline): 209 % of control
T/C (endpoint: median survival time, dose: 133.0 mg/kg/injection, schedule: Q01DX009 (ip), vehicle: saline with Tween-80): 178 % of control
T/C (endpoint: median survival time, dose: 200.0 mg/kg/injection, schedule: Q01DX009 (ip), vehicle: saline with Tween-80): 182 % of control and 184 % of control and 213 % of control
T/C (endpoint: median survival time, dose: 200.0 mg/kg/injection, schedule: Q01DX009 (ip), vehicle: saline): 172 % of control
T/C (endpoint: median survival time, dose: 300.0 mg/kg/injection, schedule: Q01DX009 (ip), vehicle: saline with Tween-80): 102 % of control
T/C (endpoint: median survival time, dose: 400.0 mg/kg/injection, schedule: Q01DX009 (ip), vehicle: saline with Tween-80): 108 % of control
T/C (endpoint: median survival time, dose: 400.0 mg/kg/injection, schedule: Q01DX009 (ip), vehicle: saline): 97 % of control

Cc1ccc(-c2nn[nH]n2)cc1[N+](=O)[O-]
T/C (endpoint: mean survival time, dose: 100.0 mg/kg/injection, schedule: Q01DX001 (ip), vehicle: saline with Tween-80): 109 % of control
T/C [2]: 95 % of control
T/C (endpoint: mean survival time, dose: 200.0 mg/kg/injection, schedule: Q01DX001 (ip), vehicle: saline with Tween-80): 86 % of control
T/C [3]: 97 % of control
T/C (endpoint: mean survival time, dose: 400.0 mg/kg/injection, schedule: Q01DX001 (ip), vehicle: saline with Tween-80): 89 % of control
T/C [1]: 95 % of control

O=Cc1cccc(O)c1O
T/C [2]: 96 % of control
T/C [3]: 102 % of control
T/C [1]: 103 % of control

COc1cc(NC(=O)CCl)ccc(=O)c1
T/C (endpoint: mean survival time, dose: 12.5 mg/kg/injection, schedule: Q01DX009 (ip), vehicle: saline with Tween-80): 106 % of control
T/C (endpoint: mean survival time, dose: 12.5 mg/kg/injection, schedule: Q04DX003 (ip), vehicle: saline with Tween-80): 99 % of control
T/C (endpoint: mean survival time, dose: 25.0 mg/kg/injection, schedule: Q01DX009 (ip), vehicle: saline with Tween-80): 104 % of control
T/C (endpoint: mean survival time, dose: 25.0 mg/kg/injection, schedule: Q04DX003 (ip), vehicle: saline with Tween-80): 91 % of control
T/C (endpoint: mean survival time, dose: 50.0 mg/kg/injection, schedule: Q01DX009 (ip), vehicle: saline with Tween-80): 90 % of control
T/C (endpoint: mean survival time, dose: 50.0 mg/kg/injection, schedule: Q04DX003 (ip), vehicle: saline with Tween-80): 94 % of control

C/C(=C\c1ccccc1)CCC(=O)O
T/C (endpoint: mean survival time, dose: 50.0 mg/kg/injection, schedule: Q04DX003 (ip), vehicle: saline): 100 % of control
T/C (endpoint: mean survival time, dose: 100.0 mg/kg/injection, schedule: Q04DX003 (ip), vehicle: saline): 103 % of control
T/C (endpoint: mean survival time, dose: 200.0 mg/kg/injection, schedule: Q04DX003 (ip), vehicle: saline): 97 % of control
